Here are results for 5 compounds from DBAASP.

In brackets after ≈: the same amount, converted by molar mass. Several values for one entry are separate records, joined by “and”; a condition that tells them apart may be missing. Equal values may be shown once. Bounds are passed on as bounds.

Some test systems named below: Listeria monocytogenes; Helicobacter pylori; Escherichia coli; Botrytis cinerea; Fusarium oxysporum; Escherichia coli SBS 363; Vibrio cholerae non-O139; Vibrio cholerae non-O1; Bacillus megaterium; Escherichia coli O157:H7.
What all share (experiment): ≥ marks a high value that may be exact or a test limit, other limits are often not marked, values filed in µg/mL are converted to µM
Assay [1] has as its system Staphylococcus aureus A170.
The subject of assay [2] is Salmonella enterica subsp. enterica serovar Paratyphi A.
In assay [3] the test system is Staphylococcus epidermidis.
Assay [4] has as its system Micrococcus luteus CIP 5345.
In assay [5] the test system is Escherichia coli IFO 12734.
For assay [6], the system named is Staphylococcus aureus IFO 12732.
The test system of assay [7] is Bacillus subtilis IFO 3513.
In assay [8] the test system is Escherichia coli ATCC 25922.
Assay [9] concerns Staphylococcus aureus ATCC 25923.
The subject of assay [10] is Pseudomonas aeruginosa ATCC 27853.
Assay [11] relates to Candida albicans ATCC 64550.
Assay [12] relates to Salmonella enterica subsp. enterica serovar Typhi.
In assay [13] the test system is Salmonella enterica subsp. enterica serovar Typhi ATCC 5784.
The test system of assay [14] is Salmonella enterica subsp. enterica serovar Typhi DMST 22842.
Assay [15] has as its system Lysinibacillus sphaericus TISTR 678.
Assay [16] deals with Staphylococcus epidermidis ATCC 12228.

For orientation: MIC means the smallest concentration in the dilution series that meets the test's criterion for growth inhibition. Low values mean inhibition by little substance, high ones a need for much substance. Take `C[C@@H](O)[C@H](NC(=O)[C@H](CS)NC(=O)[C@H](Cc1ccccc1)NC(=O)[C@H](CS)NC(=O)[C@H](CCCN=C(N)N)NC(=O)[C@H](CCCN=C(N)N)NC(=O)[C@H](CCCN=C(N)N)NC(=O)[C@H](Cc1ccccc1)NC(=O)CNC(=O)[C@H](CCCN=C(N)N)NC(=O)[C@H](CS)NC(=O)[C@H](CC(N)=O)NC(=O)CNC(=O)CNC(=O)[C@H](CO)NC(=O)[C@@H](N)Cc1ccccc1)C(=O)N[C@@H](CCCCN)C(N)=O` [FSGGNCRGFRRRCFCTK]: the MIC in [1] was 20 µM (≈ 40 µg/mL); with Listeria monocytogenes it was 20 µM (≈ 40 µg/mL); in the assay with Helicobacter pylori, 7.52 µM and 5.01 µM and 6.01 µM; in assay [2] it was 7.52 µM (≈ 15 µg/mL); against Escherichia coli, 7.52 µM (≈ 15 µg/mL); in assay [3], 20 µM (≈ 40 µg/mL).

With `CC[C@H](C)[C@H](N)C(=O)N[C@@H](CC(C)C)C(=O)N[C@@H](CCC(=O)O)C(=O)N[C@@H](CC(N)=O)C(=O)N[C@@H](CC(C)C)C(=O)N[C@@H](CC(C)C)C(=O)N[C@@H](C)C(=O)N[C@@H](CCCN=C(N)N)C(=O)N[C@@H](CO)C(=O)N[C@H](C(=O)N[C@@H](CC(N)=O)C(=O)N[C@@H](CCC(=O)O)C(=O)N[C@@H](CC(=O)O)C(=O)N[C@@H](CCCN=C(N)N)C(=O)N[C@@H](CCC(=O)O)C(=O)NCC(=O)N[C@@H](CO)C(=O)N[C@H](C(=O)N[C@@H](Cc1ccccc1)C(=O)O)[C@@H](C)CC)[C@@H](C)O` [ILENLLARSTNEDREGSIF], the MIC (against Botrytis cinerea; with Fusarium oxysporum; against Escherichia coli SBS 363; in assay [4]) was not below 200 µM each time.

On to `CC[C@H](C)[C@H](N)C(=O)N[C@@H](CC(C)C)C(=O)N1CCC[C@H]1C(=O)N[C@@H](Cc1c[nH]c2ccccc12)C(=O)N[C@@H](CCCCN)C(=O)N[C@@H](Cc1c[nH]c2ccccc12)C(=O)N1CCC[C@H]1C(=O)N[C@@H](Cc1c[nH]c2ccccc12)C(=O)N[C@@H](CC(C)C)C(=O)N1CCC[C@H]1C(=O)N[C@@H](CC(C)C)C(=O)N[C@@H](CCCN=C(N)N)C(=O)N[C@@H](CCCN=C(N)N)C(N)=O` [ILPWKWPWLPLRR], for which the MIC in assay [5] is not below 56.8 µM; in [6], 14.2 µM (≈ 25 µg/mL); in assay [7], 28.4 µM (≈ 50 µg/mL).

Turning to `CC(C)C[C@H](NC(=O)[C@H](Cc1c[nH]c2ccccc12)NC(=O)[C@@H](N)CCCCN)C(=O)N[C@@H](CCCN=C(N)N)C(=O)N[C@@H](CCCN=C(N)N)C(=O)N[C@H](C(=O)N[C@@H](Cc1c[nH]c2ccccc12)C(=O)N[C@@H](CCCN=C(N)N)C(=O)N[C@@H](Cc1c[nH]c2ccccc12)C(=O)N[C@@H](Cc1c[nH]c2ccccc12)C(=O)N[C@@H](CCCN=C(N)N)C(N)=O)C(C)C` [KWLRRVWRWWR], the MIC in [8] was 15 µM (≈ 25.9 µg/mL); in [9], 2.5 µM (≈ 4.32 µg/mL); in [10] it was 20 µM (≈ 34.5 µg/mL); in assay [11], not below 100 µM.

`CC(C)[C@H](NC(=O)CNC(=O)[C@@H](N)CC(N)=O)C(=O)N[C@@H](CCC(N)=O)C(=O)N1CCC[C@H]1C(=O)N[C@@H](CCCCN)C(=O)N[C@@H](Cc1ccc(O)cc1)C(=O)O` [NGVQPKY]: the MIC in [8] is more than 248 µM; against Vibrio cholerae non-O139, not below 248 µM; in [12], 31.1 µM and ≥ 64 µM; in assay [13], not below 64 µM; in the assay with Vibrio cholerae non-O1, not below 248 µM; in the assay on Bacillus megaterium, not below 64 µM. In addition, the MIC in [14] was not below 248 µM; in [9], more than 248 µM; in assay [15] it was not below 64 µM; in assay [16], more than 248 µM; in [10], more than 248 µM; in the assay on Escherichia coli O157:H7 it was not below 64 µM. The compound also gave an MIC in assay [3] of 31.1 µM (≈ 25 µg/mL).
